Assay results as given in BindingDB's records for patent US20240277683 (Ctxt, 2024).

What was measured:
[1] = molecular target: Histone acetyltransferase KAT5 (Homo sapiens, UniProt Q92993); assay: Acetyltransferase Biochemical Assay
Method: (§1) The reactions were performed in assay buffer (100 mM Tris-HCl, pH7.8, 15 mM NaCl, 1 mM EDTA, 0.01% Tween-20, 1 mM Dithiothreitol and 0.01% m/v chicken egg white albumin). […] 11-point dilution series of the test compounds were prepared in DMSO; a volume of 100 nL was transferred using a pin tool into assay plates containing substrates, […] control reactions were included on the same plates and received the same amount of DMSO as the compound treated wells. After adding all reagents, the plates were sealed with adhesive seals and incubated for 90 min at room temperature. An additional 4 uL of assay buffer containing AlphaScreen Protein A acceptor beads […] was then added.

[2] = molecular target: Histone acetyltransferase KAT7 (Homo sapiens, UniProt O95251); assay: Acetyltransferase Biochemical Assay
Chain of Histone acetyltransferase KAT7 (O95251 whole entry): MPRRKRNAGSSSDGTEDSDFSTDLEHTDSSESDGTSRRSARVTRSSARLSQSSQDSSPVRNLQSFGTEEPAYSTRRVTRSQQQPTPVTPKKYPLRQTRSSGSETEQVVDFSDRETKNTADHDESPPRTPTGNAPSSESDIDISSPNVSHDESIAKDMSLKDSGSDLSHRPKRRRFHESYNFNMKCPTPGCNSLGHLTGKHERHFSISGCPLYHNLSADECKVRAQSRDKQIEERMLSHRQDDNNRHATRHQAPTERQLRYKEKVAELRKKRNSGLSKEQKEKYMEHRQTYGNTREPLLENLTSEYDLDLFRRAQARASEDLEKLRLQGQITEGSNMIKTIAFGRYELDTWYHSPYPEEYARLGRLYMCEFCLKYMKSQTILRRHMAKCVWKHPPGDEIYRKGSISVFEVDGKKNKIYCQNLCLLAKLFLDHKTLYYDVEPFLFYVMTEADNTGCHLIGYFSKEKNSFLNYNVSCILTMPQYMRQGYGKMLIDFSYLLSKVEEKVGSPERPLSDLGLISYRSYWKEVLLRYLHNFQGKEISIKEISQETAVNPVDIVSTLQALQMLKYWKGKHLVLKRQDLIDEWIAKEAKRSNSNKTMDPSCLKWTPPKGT
Method: as §1

Chain of Histone acetyltransferase KAT5 (Q92993 whole entry): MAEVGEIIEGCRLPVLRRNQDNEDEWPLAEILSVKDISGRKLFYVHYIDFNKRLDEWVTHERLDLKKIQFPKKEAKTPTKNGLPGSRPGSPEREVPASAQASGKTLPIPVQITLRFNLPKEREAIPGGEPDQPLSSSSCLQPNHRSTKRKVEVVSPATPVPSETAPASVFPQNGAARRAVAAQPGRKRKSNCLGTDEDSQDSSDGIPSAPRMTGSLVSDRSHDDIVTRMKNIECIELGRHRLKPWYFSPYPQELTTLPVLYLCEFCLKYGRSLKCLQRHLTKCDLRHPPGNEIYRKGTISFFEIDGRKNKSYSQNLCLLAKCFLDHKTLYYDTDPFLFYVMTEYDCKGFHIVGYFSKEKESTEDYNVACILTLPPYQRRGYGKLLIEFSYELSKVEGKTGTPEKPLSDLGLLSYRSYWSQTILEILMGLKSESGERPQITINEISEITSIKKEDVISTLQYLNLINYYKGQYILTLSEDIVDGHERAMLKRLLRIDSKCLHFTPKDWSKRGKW

Structure (SMILES)	IC50 [1] [µM]	IC50 [2] [µM]
O=S(=O)(Nc1cc(-c2ccccc2)on1)C1CC1 [US20240277683, Example 29]	> 125	> 125
O=S(=O)(Nc1cc(-c2ccccc2)on1)c1ccc2c(c1)CCCC2 [US20240277683, Example 76]	> 125	–
COc1ccccc1-c1nnc(NS(=O)(=O)C2CCNCC2)s1 [US20240277683, Example 129]	> 125	–
